Measured values published in a melting point compilation (Tetko et al.; mined from patent text by program, amines drawn as free bases though some values may be those of a salt).

| melting point [°C] | Structure (SMILES) |
| --- | --- |
| 78 to 80 | CCN(CC)C(=O)c1ccc(C(=O)N2CCN(c3ncccc3NC(C)C)CC2)cc1 |
| 161 to 164 | COC[C@@H]1CCCN1S(=O)(=O)c1ccc2c(c1)C(=O)C1=NCC(C)(C)CN12 |
| 192 to 194 | CCOC(=O)COCCN(C)C(=O)c1c(-c2ccc(C(C)(C)C)cc2)n(C)n(-c2ccc(C#N)cc2)c1=O |
| 225 to 227 | Oc1ccc2c(c1)COc1c-2cc2ccc(O)cc2c1-c1ccccc1 |
| 78 to 80 | CCN(CC)CCn1nc2c3c(c(N)ccc31)Oc1ccccc1-2 |
| 210 to 211 | Cc1c(NC(=O)c2cc3c(s2)CCCC3)cccc1-c1cc(N)c(=O)n(C)c1 |
| 170 to 172 | CCOC(=O)C1=C(CS(=O)CCN)NC(C)=C(C(=O)OC)C1c1cccc([N+](=O)[O-])c1 (stereo not drawn) |
| 186 to 189 | Cc1cc(-c2cnc(N)c(C(=O)Nc3cccnc3)n2)ccc1F |
| 94.4 to 97.3 | CCCCc1nc(C)c(CC(=S)N2CCCC2)c(=O)n1Cc1ccc(-c2ccccc2-c2nnn[nH]2)cc1 |
| 220 | Cc1nnc2c(Cl)nc([N+](=O)[O-])c(N)n12 |
| 180 to 181 | O=C(O)C1=Cc2ccc(Oc3ccccc3)cc2OC1C(F)(F)F (stereo not drawn) |
| 165 to 167 | COc1cc(-c2cn(Cc3ccccc3)c(=O)c3ccccc23)ccc1O |
| 74 to 75 | CC(OC(=O)Nc1ccccc1)c1ccccc1[N+](=O)[O-] (stereo not drawn) |
| 195 to 197 | Cc1ccc(C(=O)Nc2ccccc2O)c(F)c1 |
| 105 | CCOC(=O)c1cc(CC)sc1Nc1cc(F)c(F)cc1[N+](=O)[O-] |
| 197 to 198 | COc1ccc(Cc2cnc(NCCSCc3nc[nH]c3C)[nH]c2=O)cn1 |
| 231 to 233 | Oc1nc(-c2ccc(F)cc2)sc1-c1ccccc1 |
| 137 to 141 | COC(=O)CSc1cc(NC(=S)N2CCCN2)c(F)cc1Cl |
| 246 to 248 | COc1ccc(-c2[nH]c3ccc(Cl)cc3c2-c2ccc(S(C)(=O)=O)cc2)cc1 |
| > 330 | CN(C(=O)CCCOc1ccc2nc3n(c(=O)c2c1)CS(=O)(=O)N3)C1CCCCC1 |
| 188 | CCOC(=O)c1c(N2CCN(C)CC2)c2cc(C)ccc2n(-c2ccccc2)c1=O |
| 160 to 165 | COCCNc1ccc(C2=NNC(=O)NC2C)cc1 (stereo not drawn) |
| 140 to 141 | O=C(NCCO)c1cccc(-c2ccc3c(c2)N(c2ccc(Cl)cc2Cl)CC3)c1 |
| 82 to 84 | COc1ccc(CC2SC(=O)NC2=O)cc1CC(=O)Nc1ccc(Oc2ccccc2)cc1 (stereo not drawn) |

| melting point [°C] | Structure (SMILES) |
| --- | --- |
| 150 to 153 | COc1ccc(Cn2c(=O)cc(C)c3cnc(N4CCC[C@H]4CO)nc32)cc1Cl |
| 123 to 124 | COc1cc(S(=O)(=O)c2ccncc2)ccc1[N+](=O)[O-] |
| 233 to 236 | O=C(O)c1cn(-c2nncs2)c2cc(F)c(F)cc2c1=O |
| 90 to 93 | COc1ccc2c(c1)C(=O)NCC2 |
| 164 to 166 | CCCCOC(=O)Nc1nc2ccccc2c2c1nc(CC)n2CCCCNS(C)(=O)=O |
| 56 to 58 | CN(Sc1nc2ccccc2s1)C(C)(C)C |
| 120 to 122 | Cc1nc2c(OCc3c(Cl)ccc(N(C)C)c3Cl)cccn2c1Br |
| 222 to 223 | Nc1ccc2ccc(N)nc2n1 |
| 274 to 276 | COc1cc2c(cc1OC)-c1c(C#N)sc(=NC(=O)c3ccccc3)n1CC2 |
| 145 | CCCCCCCCCCS(=O)(=O)NC(=O)c1cnc(C(N)=O)c(OC)c1 |
| 54 | CC(C)(O)C(=O)c1ccc(OCC2CO2)cc1 (stereo not drawn) |
| 226 to 230 | CC(C)N(CCNc1nc(Nc2cccc(NS(C)(=O)=O)c2)nc2[nH]cnc12)C(C)C |
| 173 to 175 | O=C(O)C(CCc1ccccc1)NC1CCc2ccccc2NC1=O (stereo not drawn) |
| 122 | CN(C)CCCN(C=O)C1CCC2C3CCC4CCCCC4(C)C3CCC21C (stereo not drawn) |
| 79 to 81 | O=C(OCCBr)N1CCCSC1=C[N+](=O)[O-] |
| 79 to 81 | CCOCC(O)COc1ccc(NC(=O)CCSC)cc1 (stereo not drawn) |
| 69 to 71 | C=C(c1ccccc1)c1cccc(C(C)C(=O)OC)c1 (stereo not drawn) |
| 296 to 297 | C[C@H](NC(=O)c1c[nH]c2ncc(-c3cnn(C)c3)nc12)C(C)(C)C |
| 161 to 163 | COC(=O)C1CCCCc2c1ncn2C(c1ccccc1)(c1ccccc1)c1ccccc1 (stereo not drawn) |
| 119 to 120 | COc1cc(C=C(C=O)C(C=O)=Cc2ccc(OC(C)C)c(OC)c2)ccc1OC(C)C |
| 50.2 to 52.7 | O=C(CC(=O)C1CC1)c1ncc(Cl)cc1Cl |
| 195 | Cc1ccc2c(c1)C=Cc1cc(C)ccc1C2c1cn(Cc2ccc(C(=O)N[C@@H](CC(=O)O)C(=O)O)o2)c(=O)[nH]c1=S |
| 86 to 88 | CC(C)c1cn(C(C)(C)C(=O)N(C)C)nc1-c1ccccc1Cl |
| 67 to 68 | Cc1c(Cl)nc(Cl)nc1Cl |

| melting point [°C] | Structure (SMILES) |
| --- | --- |
| 169 to 171 | CN1CCSC1=C[N+](=O)[O-] |
| 100 to 104 | CCCCCCCCCCCCCCCC(=O)OC(CCCCCCCCCCCCCCC)CC(=O)NCCC(=O)NC(CCC(=O)O)C(=O)O (stereo not drawn) |
| 154 to 156 | C=Cc1cc(OC(C)=O)cc2nc(-c3ccc(OC(C)=O)c(F)c3)oc12 |
| 110 | O=c1oc(Oc2ccc(Cl)cc2)nn1-c1ccccc1Cl |
| 151 to 153 | NC(=O)C1=NN(c2cccc(COCC(F)(F)C(F)(F)F)c2)C(c2ccccc2F)N1 (stereo not drawn) |
| 153 to 155 | OC(CCc1ccoc1)c1cnc2sc3c(n12)CCCCC3 (stereo not drawn) |
| 250 | COc1ccc(C(=O)Nc2ccc(C(=O)O)cc2)cc1C(C)(C)C |
| 148 to 150 | CNc1nc(-c2ccc(OCc3ccccc3)cc2)no1 |
| 87 to 88 | CCCc1c(OCCCSc2ccc(C(C)=O)c(OCCCC(=O)OCC)c2CCC)ccc(C(C)=O)c1O |
| 78 to 79 | Cc1nnc(COc2ccc(Oc3ccccc3)cc2)o1 |
| 157 to 159 | CC(C)=NNc1nc(Cl)c(-c2c(F)cc(F)cc2F)c(NC(C)C(F)(F)F)n1 (stereo not drawn) |
| 154 to 156 | Cc1cccc2c1CCC(=NO)C2(O)C(F)(F)F (stereo not drawn) |
| 192 to 195 | O=S(=O)(Cl)c1ccc(Nc2nccc(Cl)n2)cc1 |
| 158 to 160 | CC(C)c1ccc2ccc(N)nc2n1 |
| 124 to 125 | CCS(=O)(=O)N[C@H](C(=O)NCCc1ccc(OCCOc2ccc(F)cc2)c(OC)c1)C(C)C |
| 99 to 101 | CCCCOc1ccc(S(N)(=O)=O)cc1 |
| 202 to 207 | Cc1ccc(=O)[nH]c1C |
| 157 | Cc1cc(N)nc(CCc2nc3cc(-c4ccc(S(=O)(=O)N(C)C)cc4)cnc3[nH]2)c1 |
| 79 to 81 | CN(C(=O)OCc1ccccc1)c1ccc2c(c1)C(=O)C1(CC1)O2 |
| 69 | O=S(=O)(c1ccc(Cl)s1)N(CCO)CCO |
| 191 to 192 | O=C(Nc1nc(C(F)(F)F)c(Br)s1)c1ccc(Cl)c(Cl)c1 |
| 200 to 202 | OC(CN1CCNC1=S)c1cccnc1 (stereo not drawn) |
| 174 to 176 | COc1ccc(Cl)cc1-c1cc(Cl)cc2c1OC(CN)C2 (stereo not drawn) |

| Structure (SMILES) | melting point [°C] |
| --- | --- |
| N#CC(C#N)=Cc1ccc(O)c(O)c1 | 225 |
| CN1C(=O)C(C(=O)Nc2ccc(Oc3ccc(C(F)(F)F)cn3)cc2)C(=O)N(C)C1=S | 156 to 158 |
